According to PubChem BioAssay AID330 (DTP/NCI, 2004):
Where “and” joins values, the source holds several entries; their conditions need not be identical. Identical values can stand only once. Inconclusive results and toxic doses are left out.

System: P388 leukemia ip, CD2F1 mice, survival T/C
Assay: NCI In Vivo Anticancer Drug Screen. Data for tumor model P388 Leukemia (intraperitoneal) in CD2F1 (CDF1) mice
Settings: endpoint: median survival time, higher = longer survival
Outline: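 Mice carrying the transplanted tumor received test compound or vehicle. Survival was recorded in each group, and the value is the treated-group measurement divided by that of the vehicle-treated control group.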

[1] = dose: 50.0 mg/kg/injection, schedule: Q01DX005 (ip), vehicle: Klucel (hydroxypropylcellulose) (HPC)
[2] = dose: 100.0 mg/kg/injection, schedule: Q01DX005 (ip), vehicle: Klucel (hydroxypropylcellulose) (HPC)
[3] = dose: 200.0 mg/kg/injection, schedule: Q01DX005 (ip), vehicle: Klucel (hydroxypropylcellulose) (HPC)
[4] = dose: 100.0 mg/kg/injection, schedule: Q01DX001 (ip), vehicle: saline with Tween-80
[5] = dose: 200.0 mg/kg/injection, schedule: Q01DX001 (ip), vehicle: saline with Tween-80
[6] = dose: 400.0 mg/kg/injection, schedule: Q01DX001 (ip), vehicle: saline with Tween-80
[7] = dose: 25.0 mg/kg/injection, schedule: Q01DX005 (ip), vehicle: Klucel (hydroxypropylcellulose) (HPC)
[8] = dose: 100.0 mg/kg/injection, schedule: Q04DX002 (ip), vehicle: Klucel (hydroxypropylcellulose) (HPC)
[9] = dose: 200.0 mg/kg/injection, schedule: Q04DX002 (ip), vehicle: Klucel (hydroxypropylcellulose) (HPC)
[10] = dose: 50.0 mg/kg/injection, schedule: Q01DX009 (ip), vehicle: Klucel (hydroxypropylcellulose) (HPC)
[11] = dose: 100.0 mg/kg/injection, schedule: Q01DX009 (ip), vehicle: Klucel (hydroxypropylcellulose) (HPC)
[12] = dose: 200.0 mg/kg/injection, schedule: Q01DX009 (ip), vehicle: Klucel (hydroxypropylcellulose) (HPC)
[13] = dose: 100.0 mg/kg/injection, schedule: Q04DX003 (ip), vehicle: saline with Tween-80
[14] = dose: 60.0 mg/kg/injection, schedule: Q01DX005 (ip), vehicle: saline with Tween-80
[15] = dose: 120.0 mg/kg/injection, schedule: Q01DX005 (ip), vehicle: saline with Tween-80
[16] = dose: 240.0 mg/kg/injection, schedule: Q01DX005 (ip), vehicle: saline with Tween-80

SMILES: COC(=O)C1(CC(=O)c2cccs2)NC(=S)NC(=O)C1C#N (stereo not drawn)
- T/C (dose: 60.0 mg/kg/injection, schedule: Q01DX005 (ip), vehicle: saline): 98 % of control
- T/C (dose: 120.0 mg/kg/injection, schedule: Q01DX005 (ip), vehicle: saline): 100 % of control
- T/C (dose: 240.0 mg/kg/injection, schedule: Q01DX005 (ip), vehicle: saline): 94 % of control

SMILES: NC(=O)NC1CC1c1ccc(Cl)c(Cl)c1 (stereo not drawn)
- T/C [1]: 103 % of control
- T/C [2]: 99 % of control
- T/C [3]: 114 % of control

SMILES: COC(=O)[C@]12C(=O)C=CC(=O)C1CC=CC2C(OC(C)=O)C(COC(C)=O)OC(C)=O (stereo partly drawn)
- T/C [4]: 103 % of control
- T/C [5]: 100 % of control
- T/C [6]: 103 % of control

SMILES: Clc1cccc2nc(-c3ccccn3)n(CCc3ccncc3)c12
- T/C [7]: 95 % of control
- T/C [1]: 95 % of control
- T/C [2]: 95 % of control
- T/C [3]: 93 % of control

SMILES: CC1=CC(=O)C(Cc2ccccc2)(c2ccc(O)cc2O)N1 (stereo not drawn)
- T/C (dose: 100.0 mg/kg/injection, schedule: Q01DX001 (ip), vehicle: Klucel (hydroxypropylcellulose) (HPC)): 101 % of control
- T/C (dose: 200.0 mg/kg/injection, schedule: Q01DX001 (ip), vehicle: Klucel (hydroxypropylcellulose) (HPC)): 97 % of control
- T/C (dose: 400.0 mg/kg/injection, schedule: Q01DX001 (ip), vehicle: Klucel (hydroxypropylcellulose) (HPC)): 89 % of control

SMILES: Cc1cc(N(CCCl)CCCl)ccc1NC(=O)c1ccccc1
- T/C (dose: 50.0 mg/kg/injection, schedule: Q04DX003 (ip), vehicle: Klucel (hydroxypropylcellulose) (HPC)): 109 % of control
- T/C (dose: 100.0 mg/kg/injection, schedule: Q04DX003 (ip), vehicle: Klucel (hydroxypropylcellulose) (HPC)): 118 % of control
- T/C (dose: 200.0 mg/kg/injection, schedule: Q04DX003 (ip), vehicle: Klucel (hydroxypropylcellulose) (HPC)): 116 % of control

SMILES: C=CC(C1=CC(=O)C(OC)=CC1=O)c1ccccc1 (stereo not drawn)
- T/C (dose: 2.5 mg/kg/injection, schedule: Q01DX009 (ip), vehicle: saline with Tween-80): 101 % of control
- T/C (dose: 5.0 mg/kg/injection, schedule: Q01DX009 (ip), vehicle: saline with Tween-80): 103 % of control
- T/C (dose: 10.0 mg/kg/injection, schedule: Q01DX009 (ip), vehicle: saline with Tween-80): 102 % of control

SMILES: COC(=O)/C=C(\C)Oc1cc(Cl)c(Cl)cc1Cl
- T/C (dose: 100.0 mg/kg/injection, schedule: Q01DX009 (ip), vehicle: saline with Tween-80): 91 % of control
- T/C (dose: 400.0 mg/kg/injection, schedule: Q01DX009 (ip), vehicle: saline with Tween-80): 87 % of control

SMILES: NC(N)=NS(=O)(=O)c1ccc(N=Cc2c3ccccc3nc3ccccc23)cc1
- T/C (dose: 12.5 mg/kg/injection, schedule: Q04DX002 (ip), vehicle: Klucel (hydroxypropylcellulose) (HPC)): 99 % of control
- T/C (dose: 25.0 mg/kg/injection, schedule: Q04DX002 (ip), vehicle: Klucel (hydroxypropylcellulose) (HPC)): 94 % of control
- T/C (dose: 50.0 mg/kg/injection, schedule: Q04DX002 (ip), vehicle: Klucel (hydroxypropylcellulose) (HPC)): 96 % of control
- T/C [8]: 96 % of control
- T/C [9]: 92 % of control
- T/C (dose: 400.0 mg/kg/injection, schedule: Q04DX002 (ip), vehicle: Klucel (hydroxypropylcellulose) (HPC)): 96 % of control

SMILES: NC(CO)(CO)CO
- T/C (dose: 1600.0 mg/kg/injection, schedule: Q01DX007 (ip), vehicle: saline): 121 % of control

SMILES: O=C(/C=C/c1ccc(Cl)c(Cl)c1)c1cccc(O)c(=O)c1
- T/C (dose: 25.0 mg/kg/injection, schedule: Q01DX009 (ip), vehicle: Klucel (hydroxypropylcellulose) (HPC)): 102 % of control
- T/C [10]: 111 % of control and 118 % of control
- T/C [11]: 118 % of control
- T/C [12]: 118 % of control

SMILES: Clc1ccc(C(c2ccccc2)N2CCNCC2)cc1 (stereo not drawn)
- T/C (dose: 25.0 mg/kg/injection, schedule: Q04DX003 (ip), vehicle: saline with Tween-80): 99 % of control
- T/C (dose: 50.0 mg/kg/injection, schedule: Q04DX003 (ip), vehicle: saline with Tween-80): 113 % of control
- T/C [13]: 102 % of control

SMILES: CC1OC(Nc2ncnc3nc[nH]c23)C(O)C(O)C1NC(=O)CNC(=O)CCCCCCCCCCCC(C)(C)C (stereo not drawn)
- T/C (dose: 0.25 mg/kg/injection, schedule: Q01DX009 (ip), vehicle: distilled water + Tween-80): 111 % of control and 117 % of control
- T/C (dose: 0.5 mg/kg/injection, schedule: Q01DX009 (ip), vehicle: distilled water + Tween-80): 118 % of control
- T/C (dose: 1.0 mg/kg/injection, schedule: Q01DX009 (ip), vehicle: distilled water + Tween-80): 166 % of control
- T/C (dose: 2.0 mg/kg/injection, schedule: Q01DX009 (ip), vehicle: distilled water + Tween-80): 117 % of control
- T/C (dose: 4.0 mg/kg/injection, schedule: Q01DX009 (ip), vehicle: distilled water + Tween-80): 108 % of control and 91 % of control

SMILES: C1CNCOC1
- T/C (dose: 50.0 mg/kg/injection, schedule: Q04DX003 (ip), vehicle: saline): 120 % of control
- T/C (dose: 100.0 mg/kg/injection, schedule: Q04DX003 (ip), vehicle: saline): 117 % of control
- T/C (dose: 200.0 mg/kg/injection, schedule: Q04DX003 (ip), vehicle: saline): 123 % of control

SMILES: CN(CC(=O)O)C(=S)c1ccccc1
- T/C [4]: 95 % of control
- T/C [5]: 95 % of control
- T/C [6]: 95 % of control

SMILES: O=C1OC2C(O)C(N(O)c3ccccc3)OC2[C@@H]1O (stereo partly drawn)
- T/C [14]: 100 % of control
- T/C [15]: 106 % of control
- T/C [16]: 106 % of control

SMILES: NC(=S)N/N=C\c1ccc(/C=N/NC(N)=S)cc1
- T/C [13]: 91 % of control
- T/C (dose: 400.0 mg/kg/injection, schedule: Q04DX003 (ip), vehicle: saline with Tween-80): 86 % of control

SMILES: COc1ccc(-c2c([O-])oc(-c3ccccc3)[n+]2C)cc1
- T/C [14]: 98 % of control
- T/C [15]: 96 % of control
- T/C [16]: 98 % of control

SMILES: O=C(O)c1c[nH]c2cc(S(=O)(=O)O)ccc2c1=O
- T/C (dose: 50.0 mg/kg/injection, schedule: Q01DX009 (ip), vehicle: saline): 95 % of control
- T/C (dose: 100.0 mg/kg/injection, schedule: Q01DX009 (ip), vehicle: saline): 100 % of control
- T/C (dose: 200.0 mg/kg/injection, schedule: Q01DX009 (ip), vehicle: saline): 92 % of control

SMILES: Oc1ccc(C2c3ccccc3Oc3ccccc32)c2cccnc12
- T/C [1]: 89 % of control
- T/C [2]: 89 % of control
- T/C [3]: 86 % of control

SMILES: FC(F)(F)C1(C(F)(F)F)OS2(F)(F)(OC(C(F)(F)F)(C(F)(F)F)c3ccccc32)c2ccccc21
- T/C [7]: 92 % of control
- T/C [1]: 95 % of control
- T/C [2]: 94 % of control

SMILES: CN(C)CCCNc1nc2ccccc2c2ccnn12
- T/C (dose: 5.5 mg/kg/injection, schedule: Q01DX009 (ip), vehicle: saline): 109 % of control
- T/C (dose: 11.0 mg/kg/injection, schedule: Q01DX009 (ip), vehicle: saline): 100 % of control
- T/C (dose: 22.0 mg/kg/injection, schedule: Q01DX009 (ip), vehicle: saline): 100 % of control

SMILES: COc1ccc(/C=C2\SC(=S)NC2=O)cc1OC
- T/C [10]: 94 % of control
- T/C [11]: 92 % of control
- T/C [12]: 94 % of control
- T/C (dose: 400.0 mg/kg/injection, schedule: Q01DX009 (ip), vehicle: Klucel (hydroxypropylcellulose) (HPC)): 91 % of control

SMILES: Oc1ccc(CCNCc2ccc3c(c2)OCO3)cc1O
- T/C [8]: 99 % of control
- T/C [9]: 94 % of control

SMILES: Nc1ccc(Nc2nc(Cl)nc(Nc3ccc(N)cc3)n2)cc1
- T/C [1]: 98 % of control
- T/C [2]: 90 % of control
- T/C [3]: 90 % of control
